Like-named read-outs stand apart in the source and are kept apart here.
Experiments:
HIV-1 = experiment: Antiviral activity, MTT assay; type: cell-based; conditions: for IC50: Human immunodeficiency virus 1, read-out: IC50 (antiviral); for antiviral potency: result in words, comparator as stated
HIV-1 protease = HIV-1 protease (Human immunodeficiency virus type 1 group M subtype B, UniProt P04585); experiment: HIV-1 protease enzyme inhibition, assay developed by Toth and Marshall; type: biochemical; conditions: for enzyme inhibitory activity: result in words, comparator as stated
[1] = test system: HIVDRV^RP20 drug resistant strains of HIV; experiment: microbe, parasite or virus in culture; type: cell-based, HIV-1

CC(C)CN(C[C@@H](O)[C@H](Cc1ccccc1)NC(=O)O[C@H]1CO[C@H]2OCC[C@H]21)S(=O)(=O)c1ccc(N)cc1 [Darunavir, darunavir, reference compound] gave an IC50 (HIV-1) of 1600 pM.

Work on COc1ccc(S(=O)(=O)N(CC(C)C)C[C@@H](O)[C@H](Cc2ccccc2)NC(=O)O[C@H]2CCO[C@H]3OC[C@@H](OC)[C@H]32)cc1 [Inhibitor 30a, (3S,3aR,4S,7aS)-3-Methoxyhexahydro-2H-furo[2,3-b]pyran-4-yl (2S,3R)-3-hydroxy-4-(N-isobutyl-4-methoxyphenylsulfonamido)-1-phenylbutan-2-yl carbamate] yielded a Ki (HIV-1 protease; at least 5 data points, standard error less than 7%) of 1380 pM.

COc1ccc(S(=O)(=O)N(CC(C)C)C[C@@H](O)[C@H](Cc2ccccc2)NC(=O)O[C@H]2CCO[C@H]3OC[C@H](OC)[C@H]32)cc1 [Inhibitor 30b, (3R,3aR,4S,7aS)-3-Methoxyhexahydro-2H-furo[2,3-b]pyran-4-yl (2S,3R)-3-hydroxy-4-(N-isobutyl-4-methoxyphenylsulfonamido)-1-phenylbutan-2-ylcarbamate] was tested, and the Ki (HIV-1 protease) was 4.5 pM, the “fold better enzymatic Ki compared to compound 30a” value (HIV-1 protease; 30b vs 30a) was “over 300 fold” and the IC50 (HIV-1) was 200 pM. For the same compound, the “antiviral potency” value (HIV-1) was “subnanomolar antiviral activity”.

For CO[C@H]1CO[C@@H]2OCC[C@H](OC(=O)N[C@@H](Cc3ccccc3)[C@H](O)CN(CC(C)C)S(=O)(=O)c3ccc(N)cc3)[C@@H]21 [Inhibitor 30c, (3R,3aR,4S,7aS)-3-Methoxyhexahydro-2H-furo[2,3-b]pyran-4-yl (2S,3R)-4-(4-amino-N-isobutylphenylsulfonamido)-3-hydroxy-1-phenylbutan-2-ylcarbamate], the Ki (HIV-1 protease) was 37 pM and the IC50 (HIV-1) was 15000 pM.

In the case of CCO[C@H]1CO[C@@H]2OCC[C@H](OC(=O)N[C@@H](Cc3ccccc3)[C@H](O)CN(CC(C)C)S(=O)(=O)c3ccc(OC)cc3)[C@@H]21 [Inhibitor 30d, (3R,3aR,4S,7aS)-3-Ethoxyhexahydro-2H-furo[2,3-b]pyran-4-yl (2S,3R)-3-hydroxy-4-(N-isobutyl-4-methoxyphenyl-sulfonamido)-1-phenylbutan-2-ylcarbamate], the Ki (HIV-1 protease) is reported as 3.3 pM and the “enzyme inhibitory activity” value (HIV-1 protease) is reported as “comparable enzyme inhibitory activity”.

COc1ccc(S(=O)(=O)N(CC(C)C)C[C@@H](O)[C@H](Cc2ccccc2)NC(=O)O[C@H]2CCO[C@H]3OC[C@H](OCc4ccccc4)[C@H]32)cc1 [Inhibitor 30e, (3R,3aR,4S,7aS)-3-(Benzyloxy)hexahydro-2H-furo[2,3-b]pyran-4-yl (2S,3R)-3-hydroxy-4-(N-isobutyl-4-methoxy-phenylsulfonamido)-1-phenylbutan-2-ylcarbamate] gave a Ki (HIV-1 protease) of 12 pM and an IC50 (HIV-1) of 450 pM.

With COc1ccc(S(=O)(=O)N(CC(C)C)C[C@@H](O)[C@H](Cc2ccccc2)NC(=O)O[C@H]2CCO[C@H]3OC[C@H](O)[C@H]32)cc1 [Inhibitor 30f, (3R,3aS,4S,7aS)-3-Hydroxyhexahydro-2H-furo[2,3-b]pyran-4-yl (2S,3R)-3-hydroxy-4-(N-isobutyl-4-methoxyphenyl-sulfonamido)-1-phenylbutan-2-ylcarbamate] the Ki (HIV-1 protease) was 60 pM, the “fold less potent than compound 30b” value (HIV-1 protease; enzyme inhibitory and antiviral activity, 30f vs 30b) was 10 fold and the “antiviral activity against resistant variant” value ([1]; HIVDRV^RP20, preliminary assessment) was “maintained full antiviral activity”. For the same compound, the IC50 ([1]; Human immunodeficiency virus 1, read-out: IC50 against HIVDRV^RP20) was 3300 pM and the IC50 (HIV-1) was 3150 pM.

In the case of CCN[C@H]1CO[C@@H]2OCC[C@H](OC(=O)N[C@@H](Cc3ccccc3)[C@H](O)CN(CC(C)C)S(=O)(=O)c3ccc(OC)cc3)[C@@H]21 [Inhibitor 30j, (3R,3aS,4S,7aS)-3-(Ethylamino)hexahydro-2H-furo[2,3-b]pyran-4-yl (2S,3R)-3-hydroxy-4-(N-isobutyl-4-methoxyphenylsulfonamido)-1-phenylbutan-2-ylcarbamate], the “antiviral potency” value (HIV-1) is reported as “subnanomolar antiviral activity”.

CCN[C@H]1CO[C@@H]2OCC[C@H](OC(=O)N[C@@H](Cc3ccccc3)[C@H](O)CN(CC(C)C)S(=O)(=O)c3ccc(N)cc3)[C@@H]21 [Inhibitor 30k, (3R,3aS,4S,7aS)-3-(Ethylamino)hexahydro-2H-furo[2,3-b]pyran-4-yl (2S,3R)-4-(4-amino-N-isobutylphenylsulfonamido)-3-hydroxy-1-phenylbutan-2-ylcarbamate] was tested, and the “antiviral potency” value (HIV-1) was “significant reduction in antiviral potency”.

With CCCN[C@H]1CO[C@@H]2OCC[C@H](OC(=O)N[C@@H](Cc3ccccc3)[C@H](O)CN(CC(C)C)S(=O)(=O)c3ccc(OC)cc3)[C@@H]21 [Inhibitor 30l, (3R,3aS,4S,7aS)-3-(Propylamino)hexahydro-2H-furo[2,3-b]pyran-4-yl (2S,3R)-3-hydroxy-4-(N-isobutyl-4-methoxyphenylsulfonamido)-1-phenylbutan-2-ylcarbamate] the “fold reduction in antiviral potency compared to 30j” value (HIV-1; 30l vs 30j) was roughly 3 fold.

COc1ccc(S(=O)(=O)N(CC(C)C)C[C@@H](O)[C@H](Cc2ccccc2)NC(=O)O[C@H]2CCO[C@H]3OC[C@H](N(C)C)[C@H]32)cc1 [Inhibitor 30m, (3R,3aS,4S,7aS)-3-(Dimethylamino)hexahydro-2H-furo[2,3-b]pyran-4-yl (2S,3R)-3-hydroxy-4-(N-isobutyl-4-methoxyphenylsulfonamido)-1-phenylbutan-2-ylcarbamate] was tested, and the “enzyme inhibitory activity” value (HIV-1 protease) was “reduction in enzyme Ki” and the “fold improved antiviral activity over 30i” value (HIV-1; 30m vs 30i) was 3 fold.
